Results: the kinase profiling compilation of Christmann-Franck et al. (2016)

How the values were obtained:
Assay in all cases: KINOMEscan competition binding
Conditions in all cases: compound 10.0 µM
ACVR1B (human) = ACVR1B (human) (UniProt P36896)
AKT2 (human) = AKT2 (human) (UniProt P31751)
BRSK1 (human) = BRSK1 (human) (UniProt Q8TDC3)
BRSK2 (human) = BRSK2 (human) (UniProt Q8IWQ3)
CAMK2B (human) = CAMK2B (human) (UniProt Q13554)
CDC42BPA (human) = CDC42BPA (human) (UniProt Q5VT25)
CDC42BPB (human) = CDC42BPB (human) (UniProt Q9Y5S2)
CDK18 (human) = CDK18 (human) (UniProt Q07002)
CDK4 CCND1 (human) = CDK4 CCND1 (human) (UniProt P11802+P24385)
Chain of CDK4 CCND1 (human) (P11802 whole entry, looked up): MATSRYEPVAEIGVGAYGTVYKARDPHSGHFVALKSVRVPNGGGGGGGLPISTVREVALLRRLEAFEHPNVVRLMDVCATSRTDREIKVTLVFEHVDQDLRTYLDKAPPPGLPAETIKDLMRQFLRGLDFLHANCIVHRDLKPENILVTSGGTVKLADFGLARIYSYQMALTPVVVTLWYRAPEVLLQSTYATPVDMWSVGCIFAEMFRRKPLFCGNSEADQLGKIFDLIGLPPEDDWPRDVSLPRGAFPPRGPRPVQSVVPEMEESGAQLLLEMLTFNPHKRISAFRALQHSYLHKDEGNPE
Chain of CDK4 CCND1 (human) (P24385 whole entry, looked up): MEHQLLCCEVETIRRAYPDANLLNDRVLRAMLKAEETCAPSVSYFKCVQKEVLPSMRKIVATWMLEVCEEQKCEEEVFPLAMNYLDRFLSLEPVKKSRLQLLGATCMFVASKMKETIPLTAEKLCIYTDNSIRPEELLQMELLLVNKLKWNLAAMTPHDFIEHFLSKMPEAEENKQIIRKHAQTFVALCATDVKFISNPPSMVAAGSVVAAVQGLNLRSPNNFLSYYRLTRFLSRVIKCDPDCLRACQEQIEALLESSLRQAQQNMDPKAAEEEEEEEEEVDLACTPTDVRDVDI

CHUK (human) = CHUK (human) (UniProt O15111)
CSF1R (human) = CSF1R (human) (UniProt P07333)
CaMK1 (human) = CaMK1 (human) (UniProt Q14012)
DAPK2 (human) = DAPK2 (human) (UniProt Q9UIK4)
DCLK2 (human) = DCLK2 (human) (UniProt Q8N568)
[1] = test system: EGFR (human), P00533 [747-751 del / S ins]
EPHB1 (human) = EPHB1 (human) (UniProt P54762)
Chain of EPHB1 (human) (P54762 whole entry, looked up): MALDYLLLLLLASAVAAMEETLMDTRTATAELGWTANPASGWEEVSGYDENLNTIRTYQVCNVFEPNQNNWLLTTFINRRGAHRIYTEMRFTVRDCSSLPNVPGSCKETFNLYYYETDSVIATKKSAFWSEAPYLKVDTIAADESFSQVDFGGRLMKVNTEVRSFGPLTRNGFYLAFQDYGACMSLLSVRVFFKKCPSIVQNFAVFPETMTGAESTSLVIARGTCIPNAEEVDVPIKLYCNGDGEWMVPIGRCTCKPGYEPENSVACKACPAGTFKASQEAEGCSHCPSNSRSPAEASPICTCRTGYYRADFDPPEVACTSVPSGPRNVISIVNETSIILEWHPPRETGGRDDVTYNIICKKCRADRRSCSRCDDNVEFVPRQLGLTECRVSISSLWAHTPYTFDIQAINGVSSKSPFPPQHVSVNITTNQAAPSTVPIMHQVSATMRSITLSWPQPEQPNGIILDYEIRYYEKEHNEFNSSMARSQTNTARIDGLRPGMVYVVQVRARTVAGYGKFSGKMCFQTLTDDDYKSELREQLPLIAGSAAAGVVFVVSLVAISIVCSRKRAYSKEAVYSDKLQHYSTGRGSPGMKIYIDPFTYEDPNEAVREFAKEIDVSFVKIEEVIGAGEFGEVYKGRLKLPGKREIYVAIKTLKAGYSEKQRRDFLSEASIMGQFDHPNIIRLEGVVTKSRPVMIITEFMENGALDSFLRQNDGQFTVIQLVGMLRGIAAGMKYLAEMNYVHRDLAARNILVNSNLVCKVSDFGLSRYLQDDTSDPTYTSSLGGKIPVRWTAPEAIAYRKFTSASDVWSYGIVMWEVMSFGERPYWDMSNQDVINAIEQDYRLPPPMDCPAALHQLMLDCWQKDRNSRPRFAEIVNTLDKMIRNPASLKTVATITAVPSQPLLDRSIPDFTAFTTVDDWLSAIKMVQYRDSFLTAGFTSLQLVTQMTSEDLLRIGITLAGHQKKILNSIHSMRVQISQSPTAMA

ERBB4 (human) = ERBB4 (human) (UniProt Q15303)
FLT3 (human) = FLT3 (human) (UniProt P36888)
[2] = test system: FLT3 (human), P36888 [K663Q]
ICK (human) = ICK (human) (UniProt Q9UPZ9)
IKBKE (human) = IKBKE (human) (UniProt Q14164)
LRRK2 (human) = LRRK2 (human) (UniProt Q5S007)
LTK (human) = LTK (human) (UniProt P29376)
MAP2K5 (human) = MAP2K5 (human) (UniProt Q13163)
MAP2K7 (human) = MAP2K7 (human) (UniProt O14733)
MAPK4 (human) = MAPK4 (human) (UniProt P31152)
MARK1 (human) = MARK1 (human) (UniProt Q9P0L2)
NEK5 (human) = NEK5 (human) (UniProt Q6P3R8)
NTRK1 (human) = NTRK1 (human) (UniProt P04629)
Chain of NTRK1 (human) (P04629 whole entry, looked up): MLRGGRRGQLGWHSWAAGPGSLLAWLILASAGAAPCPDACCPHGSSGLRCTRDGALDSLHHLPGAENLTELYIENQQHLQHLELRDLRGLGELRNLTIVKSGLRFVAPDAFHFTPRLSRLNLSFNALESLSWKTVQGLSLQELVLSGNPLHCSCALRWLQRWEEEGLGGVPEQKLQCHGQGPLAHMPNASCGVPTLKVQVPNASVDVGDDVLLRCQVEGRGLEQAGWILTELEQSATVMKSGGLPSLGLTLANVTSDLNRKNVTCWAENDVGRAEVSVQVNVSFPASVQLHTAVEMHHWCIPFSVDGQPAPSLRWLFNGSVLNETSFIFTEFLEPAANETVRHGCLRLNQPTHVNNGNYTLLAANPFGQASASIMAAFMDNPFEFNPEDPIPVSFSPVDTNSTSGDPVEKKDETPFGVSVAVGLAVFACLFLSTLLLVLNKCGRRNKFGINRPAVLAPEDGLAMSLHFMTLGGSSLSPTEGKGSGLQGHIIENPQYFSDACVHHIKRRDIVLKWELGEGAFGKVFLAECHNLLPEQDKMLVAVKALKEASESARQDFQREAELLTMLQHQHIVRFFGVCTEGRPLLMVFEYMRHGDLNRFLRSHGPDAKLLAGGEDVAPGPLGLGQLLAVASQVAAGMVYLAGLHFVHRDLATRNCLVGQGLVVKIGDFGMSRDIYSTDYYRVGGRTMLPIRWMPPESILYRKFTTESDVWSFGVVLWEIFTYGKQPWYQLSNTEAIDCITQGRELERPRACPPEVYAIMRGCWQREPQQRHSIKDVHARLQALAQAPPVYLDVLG

[3] = test system: PIK3CA (human), P42336 [H1047L]
Chain of PIK3CA (human), P42336 [H1047L] (P42336 whole entry H1047L, looked up): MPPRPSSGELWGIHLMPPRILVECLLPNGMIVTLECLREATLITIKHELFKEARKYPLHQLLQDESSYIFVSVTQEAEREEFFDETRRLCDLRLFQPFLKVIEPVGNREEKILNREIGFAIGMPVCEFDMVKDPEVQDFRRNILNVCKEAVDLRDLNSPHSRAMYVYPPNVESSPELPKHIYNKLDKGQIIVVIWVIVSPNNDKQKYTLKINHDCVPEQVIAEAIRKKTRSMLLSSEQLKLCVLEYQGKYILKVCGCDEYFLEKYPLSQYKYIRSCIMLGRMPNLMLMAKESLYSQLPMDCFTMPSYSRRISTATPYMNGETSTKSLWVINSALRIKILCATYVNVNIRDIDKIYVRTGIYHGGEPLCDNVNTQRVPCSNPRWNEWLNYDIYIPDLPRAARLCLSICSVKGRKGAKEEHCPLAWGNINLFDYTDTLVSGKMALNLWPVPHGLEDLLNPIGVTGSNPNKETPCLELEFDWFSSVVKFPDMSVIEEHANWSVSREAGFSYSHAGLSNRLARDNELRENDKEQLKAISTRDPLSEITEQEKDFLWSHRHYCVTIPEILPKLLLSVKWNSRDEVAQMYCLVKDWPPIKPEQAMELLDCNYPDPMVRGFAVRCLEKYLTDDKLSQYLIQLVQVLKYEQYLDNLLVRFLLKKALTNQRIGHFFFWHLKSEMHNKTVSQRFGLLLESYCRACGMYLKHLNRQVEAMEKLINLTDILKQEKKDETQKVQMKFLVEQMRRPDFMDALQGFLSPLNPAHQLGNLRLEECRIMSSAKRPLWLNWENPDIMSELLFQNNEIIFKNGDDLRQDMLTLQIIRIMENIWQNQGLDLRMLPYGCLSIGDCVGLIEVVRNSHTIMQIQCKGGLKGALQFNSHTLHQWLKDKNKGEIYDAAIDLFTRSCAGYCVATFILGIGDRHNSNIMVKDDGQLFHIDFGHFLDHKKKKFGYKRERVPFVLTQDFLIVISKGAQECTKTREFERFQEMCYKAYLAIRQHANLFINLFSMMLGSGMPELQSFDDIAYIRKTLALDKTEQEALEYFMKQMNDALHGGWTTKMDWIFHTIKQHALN

[4] = test system: PIK3CA (human), P42336 [M1043I]
Chain of PIK3CA (human), P42336 [M1043I] (P42336 whole entry M1043I, looked up): as the sequence (P42336 whole entry H1047L, looked up) above, with M1043I, L1047H counted along it

PIK3CB (human) = PIK3CB (human) (UniProt P42338)
PKMYT1 (human) = PKMYT1 (human) (UniProt Q99640)
PLK2 (human) = PLK2 (human) (UniProt Q9NYY3)
Chain of PLK2 (human) (Q9NYY3 whole entry, looked up): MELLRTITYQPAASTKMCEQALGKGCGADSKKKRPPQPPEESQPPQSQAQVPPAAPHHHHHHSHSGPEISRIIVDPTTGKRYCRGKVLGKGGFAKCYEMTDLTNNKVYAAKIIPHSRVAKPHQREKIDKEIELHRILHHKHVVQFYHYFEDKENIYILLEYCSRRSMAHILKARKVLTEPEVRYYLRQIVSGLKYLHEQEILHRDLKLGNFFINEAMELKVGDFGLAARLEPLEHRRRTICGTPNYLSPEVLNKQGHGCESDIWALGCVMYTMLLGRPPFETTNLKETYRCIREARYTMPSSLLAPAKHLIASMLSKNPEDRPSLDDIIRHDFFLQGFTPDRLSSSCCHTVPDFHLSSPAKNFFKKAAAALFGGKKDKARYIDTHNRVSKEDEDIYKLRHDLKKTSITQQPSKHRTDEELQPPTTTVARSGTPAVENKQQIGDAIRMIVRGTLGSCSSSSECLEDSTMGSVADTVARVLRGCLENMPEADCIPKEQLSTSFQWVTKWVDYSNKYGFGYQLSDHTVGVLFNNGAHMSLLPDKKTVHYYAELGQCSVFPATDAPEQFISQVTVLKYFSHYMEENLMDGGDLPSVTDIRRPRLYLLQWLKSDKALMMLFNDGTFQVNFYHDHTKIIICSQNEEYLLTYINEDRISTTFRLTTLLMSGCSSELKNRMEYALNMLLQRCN

PRKD3 (human) = PRKD3 (human) (UniProt O94806)
PRKG2 (human) = PRKG2 (human) (UniProt Q13237)
SRC (human) = SRC (human) (UniProt P12931)
STK33 (human) = STK33 (human) (UniProt Q9BYT3)
STK38L (human) = STK38L (human) (UniProt Q9Y2H1)
TGFBR1 (human) = TGFBR1 (human) (UniProt P36897)
ULK1 (human) = ULK1 (human) (UniProt O75385)

Chain of BRSK1 (human) (Q8TDC3 whole entry, looked up): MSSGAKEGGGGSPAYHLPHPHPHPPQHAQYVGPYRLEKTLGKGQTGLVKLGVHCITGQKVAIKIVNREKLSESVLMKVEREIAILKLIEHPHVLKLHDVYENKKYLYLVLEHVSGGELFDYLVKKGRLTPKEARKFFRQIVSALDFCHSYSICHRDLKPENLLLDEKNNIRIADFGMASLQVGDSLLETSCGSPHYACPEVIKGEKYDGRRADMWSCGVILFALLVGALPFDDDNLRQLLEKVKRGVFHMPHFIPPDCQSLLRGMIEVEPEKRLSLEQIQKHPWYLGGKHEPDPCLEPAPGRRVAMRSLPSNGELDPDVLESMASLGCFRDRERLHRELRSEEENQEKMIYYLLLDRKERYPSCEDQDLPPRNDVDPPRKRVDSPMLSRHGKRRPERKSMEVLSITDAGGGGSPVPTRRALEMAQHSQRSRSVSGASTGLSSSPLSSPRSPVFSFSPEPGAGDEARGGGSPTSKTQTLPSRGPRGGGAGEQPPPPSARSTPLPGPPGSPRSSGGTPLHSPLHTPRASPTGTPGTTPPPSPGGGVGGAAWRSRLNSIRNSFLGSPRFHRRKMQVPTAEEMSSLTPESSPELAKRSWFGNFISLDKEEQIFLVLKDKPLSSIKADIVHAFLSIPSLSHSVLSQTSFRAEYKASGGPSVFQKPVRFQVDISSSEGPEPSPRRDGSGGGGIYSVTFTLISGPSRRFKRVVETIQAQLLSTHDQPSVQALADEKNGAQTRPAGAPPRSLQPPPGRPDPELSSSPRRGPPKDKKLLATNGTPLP

How did the kinase still bound, per cent of control (ACVR1B (human)) turn out when COc1ccc(-c2ccc3c(N4CCOCC4)nc(N4C[C@@H](C)O[C@@H](C)C4)nc3n2)cc1CO was run?
The kinase still bound, per cent of control was 91%.

What about the kinase still bound, per cent of control (AKT2 (human)) of the same compound?
Its kinase still bound, per cent of control is 83%.

What about the kinase still bound, per cent of control (BRSK1 (human)) of the same compound?
Its kinase still bound, per cent of control is 100%.

What about the kinase still bound, per cent of control (BRSK2 (human)) of the same compound?
The kinase still bound, per cent of control was 98%.

What about the kinase still bound, per cent of control (CAMK2B (human)) of the same compound?
Its kinase still bound, per cent of control is 96%.

What about the kinase still bound, per cent of control (CDC42BPA (human)) of the same compound?
Its kinase still bound, per cent of control is 92%.

And the kinase still bound, per cent of control (CDC42BPB (human))?
Its kinase still bound, per cent of control is 81%.

What about the per cent of control (CDK18 (human)) of the same compound?
The per cent of control was 100%.

And the per cent of control (CDK4 CCND1 (human))?
Its per cent of control is 70%.

What about the kinase still bound, per cent of control (CHUK (human)) of the same compound?
The kinase still bound, per cent of control was 72%.

And the kinase still bound, per cent of control (CSF1R (human))?
The kinase still bound, per cent of control was 90%.

And the kinase still bound, per cent of control (CaMK1 (human))?
Its kinase still bound, per cent of control is 90%.

And the kinase still bound, per cent of control (DAPK2 (human))?
Its kinase still bound, per cent of control is 80%.

And the kinase still bound, per cent of control (DCLK2 (human))?
Its kinase still bound, per cent of control is 100%.

And the kinase still bound, per cent of control [1]?
The kinase still bound, per cent of control was 82%.

And the kinase still bound, per cent of control (EPHB1 (human))?
The kinase still bound, per cent of control was 100%.

And the kinase still bound, per cent of control (ERBB4 (human))?
Its kinase still bound, per cent of control is 89%.

And the kinase still bound, per cent of control (FLT3 (human))?
Its kinase still bound, per cent of control is 71%.

What about the kinase still bound, per cent of control [2] of the same compound?
The kinase still bound, per cent of control was 96%.

And the kinase still bound, per cent of control (ICK (human))?
Its kinase still bound, per cent of control is 100%.

And the kinase still bound, per cent of control (IKBKE (human))?
The kinase still bound, per cent of control was 100%.

And the kinase still bound, per cent of control (LRRK2 (human))?
Its kinase still bound, per cent of control is 100%.

And the kinase still bound, per cent of control (LTK (human))?
The kinase still bound, per cent of control was 96%.

What about the kinase still bound, per cent of control (MAP2K5 (human)) of the same compound?
The kinase still bound, per cent of control was 100%.

And the kinase still bound, per cent of control (MAP2K7 (human))?
Its kinase still bound, per cent of control is 100%.

What about the kinase still bound, per cent of control (MAPK4 (human)) of the same compound?
Its kinase still bound, per cent of control is 100%.

And the kinase still bound, per cent of control (MARK1 (human))?
The kinase still bound, per cent of control was 100%.

And the kinase still bound, per cent of control (NEK5 (human))?
Its kinase still bound, per cent of control is 100%.

What about the kinase still bound, per cent of control (NTRK1 (human)) of the same compound?
Its kinase still bound, per cent of control is 72%.

And the kinase still bound, per cent of control [3]?
The kinase still bound, per cent of control was 26%.

And the kinase still bound, per cent of control [4]?
Its kinase still bound, per cent of control is 2%.

What about the kinase still bound, per cent of control (PIK3CB (human)) of the same compound?
Its kinase still bound, per cent of control is 30%.

And the kinase still bound, per cent of control (PKMYT1 (human))?
Its kinase still bound, per cent of control is 84%.

What about the kinase still bound, per cent of control (PLK2 (human)) of the same compound?
Its kinase still bound, per cent of control is 100%.

What about the kinase still bound, per cent of control (PRKD3 (human)) of the same compound?
The kinase still bound, per cent of control was 85%.

What about the kinase still bound, per cent of control (PRKG2 (human)) of the same compound?
The kinase still bound, per cent of control was 100%.

And the kinase still bound, per cent of control (SRC (human))?
Its kinase still bound, per cent of control is 100%.

What about the kinase still bound, per cent of control (STK33 (human)) of the same compound?
The kinase still bound, per cent of control was 95%.

What about the kinase still bound, per cent of control (STK38L (human)) of the same compound?
The kinase still bound, per cent of control was 95%.

And the kinase still bound, per cent of control (TGFBR1 (human))?
Its kinase still bound, per cent of control is 100%.

And the kinase still bound, per cent of control (ULK1 (human))?
The kinase still bound, per cent of control was 79%.
